Consider 13 compounds from US12440496B2, “Natriuretic peptide receptor a agonists useful for the treatment of cardiometabolic diseases, kidney disease and diabetes” (Merck Sharp & Dohme LLC, priority 2019, dated 2025).

For this assay, the target named is T1, hNPRA (Homo sapiens, UniProt P16066).
T1 construct: expressed in transfected cells
T1 sequence (P16066 33-1061): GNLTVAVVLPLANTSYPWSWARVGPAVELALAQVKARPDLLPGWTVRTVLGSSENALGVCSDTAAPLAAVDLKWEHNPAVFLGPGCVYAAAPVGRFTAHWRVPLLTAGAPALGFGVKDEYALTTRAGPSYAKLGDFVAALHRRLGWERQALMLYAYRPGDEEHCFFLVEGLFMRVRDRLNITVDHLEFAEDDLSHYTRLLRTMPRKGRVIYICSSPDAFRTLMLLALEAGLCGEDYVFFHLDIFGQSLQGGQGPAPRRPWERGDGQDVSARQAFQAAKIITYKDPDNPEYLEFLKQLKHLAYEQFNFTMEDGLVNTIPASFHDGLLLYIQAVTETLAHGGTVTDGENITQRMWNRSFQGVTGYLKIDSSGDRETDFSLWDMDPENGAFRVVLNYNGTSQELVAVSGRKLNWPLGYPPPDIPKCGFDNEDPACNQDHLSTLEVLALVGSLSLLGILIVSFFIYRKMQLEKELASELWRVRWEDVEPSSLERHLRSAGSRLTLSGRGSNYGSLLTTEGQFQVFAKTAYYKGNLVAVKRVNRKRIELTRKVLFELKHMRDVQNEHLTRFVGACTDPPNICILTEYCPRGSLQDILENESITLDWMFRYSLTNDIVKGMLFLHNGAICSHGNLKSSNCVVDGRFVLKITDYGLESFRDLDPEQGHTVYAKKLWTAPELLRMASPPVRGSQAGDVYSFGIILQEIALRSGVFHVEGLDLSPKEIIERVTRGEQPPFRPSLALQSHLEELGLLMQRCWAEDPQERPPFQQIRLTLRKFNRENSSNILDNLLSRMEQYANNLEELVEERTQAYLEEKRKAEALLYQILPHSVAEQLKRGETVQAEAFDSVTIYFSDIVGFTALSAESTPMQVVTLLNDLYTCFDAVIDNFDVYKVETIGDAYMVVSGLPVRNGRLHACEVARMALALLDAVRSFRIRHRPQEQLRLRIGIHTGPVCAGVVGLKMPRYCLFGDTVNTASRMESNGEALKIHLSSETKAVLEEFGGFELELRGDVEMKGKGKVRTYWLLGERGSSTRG
In words: NPRA Functional Cell Assay (cGMP HTRF, NPRA HEK JumpIn stable cells). The class given is cell-based. To be noted: cGMP production, 1 hour at 37° C., 10-point dose response. From the text:
NPRA Functional Cell Assay
Assay Buffer components HEPES and Opti-MEM® I Reduced-Serum with Glutamine (no phenol red) were from Gibco/Invitrogen (Thermo Fisher Scientific, Waltham, MA USA). 3-Isobutyl-1-methylxanthine (IBMX) and 4-(3-Butoxy-4-methoxybenzyl) imidazolidin-2-one (RO20) were obtained from Sigma-Aldrich (St. Louis, MO, USA). DPBS (Dulbecco's phosphate-buffered saline) without Ca2+ and Mg2+ was purchased from GE Healthcare Bio-Sciences (Pittsburgh, PA, USA). 384 well white Optiplates were from Perkin Elmer (Atlantic Highlands, NJ, USA). Human ANP (Atrial Natriuretic Peptide) (1-28) was purchased from Sigma-Aldrich (Catalog #A1663) and rat ANP (1-28) from Bachem (Torrance, CA, USA) (Catalog #H2100). Human-BNP (Human-Brain Natriuretic Peptide) (1-32 AA) was purchased from American Peptide Company (Sunnyvale, CA, USA) (product No. 14-1-90). cGMP kits were purchased from Cisbio. The assay ready frozen (ARF) Human/rat/dog NPRA HEK JumpIn Stable frozen cells (low passage number 5-11) were prepared in-house.
Test compounds were titrated in DMSO in a 10-point dose response in a separate step followed by a 100-fold dilution into the reaction. Positive response for each assay was determined using 10 nM rat-ANP peptide (rat cells) or 50 nM h-ANP peptide (human and dog cells).
Cells were thawed, washed with DPBS and resuspended in assay buffer (Opti-MEM+Glutamine, phenol red free media, 10 mM HEPES, 100 uM IBMX and 100 uM RO20) that was warmed to 37° C. Cells were then transferred to microplates via a Microplate Combi dispenser at a density of 1500, 400 and 1200 cells/well for human, rat and dog cells respectively, followed by acoustic transfer (Echo) of compound.
Compounds and cells were incubated at 37° C. with 5% CO2 for 1 hour, after which the cells were lysed and cGMP was captured using a CisBio cGMP HTRF assay kit. The TRF signal was measured with an Envision plate reader (emission set to 615 and 665 nm) after 1 hour incubation at ambient temperature. The TRF signal was converted to [cGMP] through the use of a cGMP calibration curve on each microplate. EC50's were generated from the resulting dose response curves by use of a 4 parameter logistic algorithm.
Assay Buffer components HEPES and Opti-MEM® I Reduced-Serum with Glutamine (no phenol red) were from Gibco/Invitrogen. 3-Isobutyl-1-methylxanthine (IBMX) and 4-(3-Butoxy-4-methoxybenzyl) imidazolidin-2-one (RO20) were obtained from Sigma. DPBS (Dulbecco's phosphate-buffered saline) without Ca2+ and Mg2+ was purchased from GE Healthcare Bio-Sciences (Pittsburgh, PA, USA). 384 well white Optiplates were from Perkin Elmer (Atlantic Highlands, NJ, USA). Human ANP (1-28) was purchased from Sigma (A1663) and rat ANP (1-28) from Bachem (H2100). Human-BNP (1-32 AA) was purchased from American Peptide Company (Sunnyvale, CA, USA) (product No. 14-1-90). cGMP kits were purchased from Cisbio (Bedford, MA, USA). The assay ready frozen (ARF) Human/rat/dog NPRA HEK JumpIn Stable frozen cells (low passage number 5-11) were prepared in-house.
Compounds and cells were incubated at 37° C. with 5% CO2 for 1 hour, after which the cells were lysed and cGMP was captured using a CisBio cGMP HTRF assay kit. The TRF signal was measured with an Envision® plate reader (Perkin Elmer) (emission set to 615 and 665 nm) after 1 hour incubation at ambient temperature. The TRF signal was converted to [cGMP] through the use of a cGMP calibration curve on each microplate. EC50's were generated from the resulting dose response curves by use of a 4 parameter logistic algorithm.
hNPRA EC50 (nM) were determined for the compounds of Example 1 through Example 273 and are reported in the Experimental section of this application.
`CC(C)(C)[C@H]1CCc2nc3sc(C(=O)N[C@H](CCN4CCC(O)CC4)c4cccc(C(=O)NC5CCNC5=O)c4)nc3cc2C1` (mixture of isomers) [Example 154, rac-(7S)-7-tert-butyl-N-[rac-(1R)-3-(4-hydroxy-1-piperidyl)-1-[3-[(2-oxopyrrolidin-3-yl)carbamoyl]phenyl]propyl]-5,6,7,8-tetrahydrothiazolo[5,4-b]quinoline-2-carboxamide]: the response was half-maximal at 0.721 µM (EC50).

The compound `CC(C)(C)[C@H]1CCc2nc3sc(C(=O)N[C@H](CCN4CCC(O)CC4)c4ccc(-c5cc(F)c(O)cn5)cc4)nc3cc2C1` [Example 228, (S)-7-(tert-butyl)-N-((R)-1-(4-(4-fluoro-5-hydroxypyridin-2-yl)phenyl)-3-(4-hydroxypiperidin-1-yl)propyl)-5,6,7,8-tetrahydrothiazolo[5,4-b]quinoline-2-carboxamide] gave an EC50 of 0.305 µM.

`CC(C)(C)[C@H]1CCc2nc3sc(C(=O)N[C@H](CCN4CCC(O)CC4)c4ccc(N5CCOC5=O)nc4)nc3cc2C1` (racemic) [Example 186, rac-(7S)-7-tert-butyl-N-[rac-(1R)-3-(4-hydroxy-1-piperidyl)-1-[6-(2-oxooxazolidin-3-yl)-3-pyridyl]propyl]-5,6,7,8-tetrahydrothiazolo[5,4-b]quinoline-2-carboxamide] came in with an EC50 of 0.35 µM.

`CC(C)(C)[C@H]1CCc2nc3sc(C(=O)N[C@H](CCN4CCC(O)CC4)c4ccc(-c5c[nH]c(=O)c(F)c5)cc4)nc3cc2C1` [Example 82, (7S)-7-tert-butyl-N-[(1R)-1-[4-(5-fluoro-6-hydroxy-3-pyridyl)phenyl]-3-(4-hydroxy-1-piperidyl)propyl]-5,6,7,8-tetrahydrothiazolo[5,4-b]quinoline-2-carboxamide] gave an EC50 of 0.196 µM.

In the case of `CC(C)(C)[C@H]1CCc2nc3sc(C(=O)NC(CCN4CCNCC4)c4ccccc4)cc3cc2C1` (stereo partly drawn) [Example 245, (6S)-6-tert-butyl-N-(1-phenyl-3-piperazin-1-ylpropyl)-5,6,7,8-tetrahydrothieno[2,3-b]quinoline-2-carboxamide], the EC50 came to 6.32 µM. This EC50 lies about 32-fold higher than the previous one.

With `CC(C)(C)[C@H]1CCc2nc3sc(C(=O)N[C@H](CCN4CCCC4)c4ccc(-c5ccc(=O)[nH]c5)cc4)cc3cc2C1` (racemic) [Example 33, rac-(6S)-6-tert-butyl-N-[rac-(1R)-1-[4-(6-oxo-1H-pyridin-3-yl)phenyl]-3-pyrrolidin-1-ium-1-yl-propyl]-5,6,7,8-tetrahydrothieno[2,3-b]quinoline-2-carboxamide;formate], the EC50 was 0.511 µM.

Turning to `CC(C)(C)[C@H]1CCc2nc3sc(C(=O)N[C@H](CCN4CCCC(O)C4)c4cccc(NS(C)(=O)=O)c4)cc3cc2C1` (mixture of isomers) [Example 12, ammonium; methylsulfonyl-[3-[rac-(1R)-3-(3-hydroxy-1-piperidyl)-1-[[rac-(6S)-6-tert-butyl-5,6,7,8-tetrahydrothieno[2,3-b]quinoline-2-carbonyl]amino]propyl]phenyl] azanide], the EC50 stood at 0.79 µM.

`CC(C)(C)[C@H]1CCc2nc3sc(C(=O)N[C@H](CCN4CCC(O)CC4)c4cccc(C(=O)N[C@@H]5CCNC5)c4)nc3cc2C1` (racemic) [Example 130, rac-(7S)-7-tert-butyl-N-[rac-(1R)-3-(4-hydroxy-1-piperidyl)-1-[3-[[rac-(3R)-pyrrolidin-3-yl]carbamoyl]phenyl]propyl]-5,6,7,8-tetrahydrothiazolo[5,4-b]quinoline-2-carboxamide] gave an EC50 of 0.0965 µM.

`CC(C)(C)[C@H]1CCc2nc3sc(C(=O)N[C@H](CCN4CCC(O)CC4)c4ccc(-c5ccncc5N)cc4)nc3cc2C1` (racemic) [Example 175, rac-(7S)-7-tert-butyl-N-[rac-(1R)-1-[4-(3-amino-4-pyridyl)phenyl]-3-(4-hydroxy-1-piperidyl)propyl]-5,6,7,8-tetrahydrothiazolo[5,4-b]quinoline-2-carboxamide] had an EC50 of 1.02 µM. This EC50 lies about 11-fold higher than the previous one.

For `CC(C)(C)[C@H]1CCc2nc3sc(C(=O)N[C@H](CCN4CCC(O)CC4)c4ccc(-c5cnsn5)cc4)nc3cc2C1` (racemic) [Example 183, rac-(7S)-7-tert-butyl-N-[rac-(1R)-3-(4-hydroxy-1-piperidyl)-1-[4-(1,2,5-thiadiazol-3-yl)phenyl]propyl]-5,6,7,8-tetrahydrothiazolo[5,4-b]quinoline-2-carboxamide], a half-maximal effect (EC50) was put at 1.66 µM. This EC50 is about 1.6-fold higher than that of the compound before.

Compound `CC(C)C1(F)CCc2nc3sc(C(=O)N[C@H](CCN4CCC(O)CC4)c4ccc(N5CCOC5=O)cc4)nc3cc2C1` (stereo partly drawn) [Example 233, 7-fluoro-N-((R)-3-(4-hydroxypiperidin-1-yl)-1-(4-(2-oxooxazolidin-3-yl)phenyl)propyl)-7-isopropyl-5,6,7,8-tetrahydrothiazolo[5,4-b]quinoline-2-carboxamide] showed an EC50 of 2.04 µM.

`CN(CC[C@@H](NC(=O)c1nc2cc3c(nc2s1)CC[C@H](C(C)(C)C)C3)c1ccc(NS(=O)(=O)N(C)C)nc1)CC1(O)CC1` (racemic) [Example 209, (1-hydroxycyclopropyl)methyl-methyl-[rac-(3R)-3-[6-(dimethylsulfamoylamino)-3-pyridyl]-3-[[rac-(7S)-7-tert-butyl-5,6,7,8-tetrahydrothiazolo[5,4-b]quinoline-2-carbonyl]amino]propyl]ammonium; 2,2,2-trifluoroacetate] gave an EC50 of 0.735 µM. Compared with the last compound, the EC50 is about 2.8-fold lower.

`CN1CC(NC(=O)c2cccc([C@@H](CCN3CCC(O)CC3)NC(=O)c3nc4cc5c(nc4s3)CC[C@H](C(C)(C)C)C5)c2)CC1=O` (mixture of isomers) [Example 149, rac-(7S)-7-tert-butyl-N-[rac-(1R)-3-(4-hydroxy-1-piperidyl)-1-[3-[(1-methyl-5-oxo-pyrrolidin-3-yl)carbamoyl]phenyl]propyl]-5,6,7,8-tetrahydrothiazolo[5,4-b]quinoline-2-carboxamide] had an EC50 of 0.656 µM.
